Key:
[1] = test system: IL-6; assay: Ex vivo LPS-stimulated human whole blood, IL-6 production; assay type: cell-based; conditions: mean values
Experimental: Venous blood from human donors was collected as 10 ml aliquots in tubes containing sodium heparin (BD Vacutainer from Becton Dickinson and Company, Franklin Lakes, NY). Blood was added to sterile polystyrene round bottom 96-well tissue culture plates (Corning Costar) at 100 µl/well, omitting the outside wells. Media (RPMI Medium 1640 with L-glutamine, Invitrogen Corporation, Carlsbad, CA) was added to the blood in 90 µl aliquots for a total volume of 190 µl. Outside wells were filled with 200 µl of media. Blood was placed in a humidified 37°C incubator with 5% CO2 while compounds were prepared (nearly 60 minutes).
Compounds were prepared from 10 mM stock solutions in dimethylsulfoxide (DMSO, Sigma-Aldrich). […] Final DMSO and ethanol concentrations in the assay were 0.1 % and 1.5%. The samples were gently triturated twice to mix and replaced in the incubator. LPS stock (E. coli serotype 0111:B4, Sigma-Aldrich), stored in aliquots of 100 µg/ml in RPMI at -20°C, was diluted 1/50 in RPMI to make a working stock solution. After 60 minutes of incubation, 10 µl of the prepared LPS working stock was added to the blood to a final concentration of 100 ng/ml, omitting wells to be used as negative control. The samples were again gently triturated and the plates incubated overnight for 22 hours. Following incubation, the blood was centrifuged at 1500 x g for 5 minutes and the plasma removed to either freeze at -20°C or assay for cytokine release.
IL-1β, IFNγ,IL-6, and TNFα protein levels were measured using Meso Scale assay kits (Meso Scale Discovery, Gaithersburg, MD). Reagents were allowed to come to room temperature. Meso Scale plates were blocked with 30 µl of human plasma/serum assay diluent with gentle shaking for 60 minutes at room temperature. Plates were washed 3x with wash buffer (PBS, Invitrogen Corporation, with 0.05% Tween-20, Sigma-Aldrich). Calibrators for standard curves were prepared in human plasma/serum assay diluent as a 1/5 serial dilution to achieve final concentrations ranging from 50000 pg/ml to 3.2 pg/ml. Samples and calibrators were added at 20 µl/well, then incubated at room temperature with gentle shaking for 90 minutes. Plates were again washed 3 times with wash buffer. Detection antibody was diluted in human plasma/serum antibody diluent to 1 µg/ml and added to the plate at 20 µl/well. Plates were incubated as before for 60 minutes and washed again. Read Buffer T (4x) was diluted 1:1 with mqH2O to 2 times concentration and 150 µl added to each well. Plates were analyzed on the SECTOR Imager 6000 (Meso Scale Discovery) to generate raw signal values.
Individual values were compared to positive and negative controls (vehicle treated blood with LPS and vehicle treated blood without LPS, respectively) to generate % inhibition. Triplicate values were averaged for each donor. The values for two donors were averaged (only one donor was used for IL-1β) and graphed using 4-parameter fit curves in the GraFit 5.0.11 application.

[2] = test system: TNFα; assay: LPS-induced serum TNFα suppression, 28-day repeat dose mouse model; assay type: in vivo, Swiss Webster female mice
Experimental: (§1) The compounds were weighed and suspended in a vehicle of 0.5% methylcellulose/0.025% tween 20 (Sigma-Aldrich, St. Louis, MO). Compound suspensions were homogenized using a Polytron PT-3100 tissue homogenizer to create a very fine suspension and were then sonicated for 10 minutes using a water bath sonicator. Aliquots of each suspension were made for daily dosing at 0.2 ml/dose. Swiss Webster female mice, 10-12 weeks old, 28-29 grams, (Taconic, Germantown, NY) were used in accordance with the guidelines of the Institutional Animal Care and Use Committee and in accordance with NIH guidelines on laboratory animal welfare. Mice were acclimated in the Pfizer animal facility for three to seven days prior to being utilized in a study. […] Each treatment group contained 5-10 mice. To establish a dosing regimen for the studies, a pilot pharmacodynamic time course experiment was conducted to quantify TNFα repression after a single ED80 dose.
(§2) Body weights were measured on the first and last day of each experiment. Blood samples were obtained after three weeks of dosing for a steady-state pharmacokinetic (PK) analysis. To assess compound effects on LPS-induced TNFα, all mice received an intraperitoneal injection of LPS (Salmonella typhosa, L-7895; Sigma-Aldrich, St. Louis,) 2.5 hr after the last dose on day 28. Mice were sacrificed 90 minutes after LPS administration. Serum samples were quantified for osteocalcin and TNFα using the multiplex assays (Linco Research, Inc, St. Charles, MO; Luminex 100, Austin, TX). Samples were diluted 1:20 and the assay was run according to manufacturer's instructions. The osteocalcin standard was purchased separately (Biomedical Technologies Inc., Stoughton, MA). Mice were fasted for 4 hours before serum was collected for TNFα, and osteocalcin levels. For each experiment, outliers were detected by calculating the number of standard deviations from the mean of the group. If the value being examined was more than 2.5 standard deviations from the mean, it was excluded from the rest of the calculations.
(§3) The individual mouse percent inhibition values were fit to a four-parameter logistic model using the dose mean for each group.
(§4) ED50 and ED80 values were obtained for the various endpoints using a four-parameter logistic fit. For compounds which were tested multiple times, ED50 and ED80 values were obtained using four-parameter logistic fits of the combined data from multiple experiments.

[3] = test system: Mouse Collagen-induced arthritis (mCIA); assay: Therapeutic mouse collagen-induced arthritis (mCIA) model; assay type: in vivo, Male DBA/J mice
Source text: Mouse Collagen-induced arthritis is a commonly used chronic, preclinical model of rheumatoid arthritis in which joint swelling and bone destruction occur following immunization with type II collagen. Reduction of disease incidence and severity has been shown previously to be predictive of disease-modification and signs and symptoms mitigation, respectively, in a clinical setting. In the therapeutic mCIA model, induction of disease incidence and severity was synchronized via LPS stimulation. Male DBA/J mice were immunized with 100 ug of bovine type II collagen (bCII) on day 0. […] Dosing of compounds was initiated in the therapeutic mode on day 34 and continued through day 49. Different treatments were compared by measuring the decrease in incidence (i.e., resolution of disease) and the decrease in severity of paw swelling over time.

[4] = mouse, in vivo
Source text: Due to blood volume sampling limitations in mice, AUC(0-4 hr) values were used to make pharmacodynamic comparisons.

[5] = Serum osteocalcin suppression, 28-day repeat dose mouse model; conditions: in vivo, po
Experimental: as §1, §2, §3, §4

[6] = test system: osteocalcin; assay: as above; conditions: in vivo
Experimental: as §1, §2, §3, §4

Work on `Cc1ncccc1NC(=O)c1ccc2c(c1)CC[C@@H]1C[C@@](O)(C(F)(F)F)CC[C@@]21Cc1ccccc1` [Example 1, (4βS,7R,8αR)-4β-benzyl-7-hydroxy-N-(2-methylpyridin-3-yl)-7-(trifluoromethyl)-4β,5,6,7,8,8α,9,10-octahydrophenanthrene-2-carboxamide] yielded an inhibition at 0.000457247 µM ([1]; 0.457247 nM) of -1.37%, an inhibition at 0.00137174 µM ([1]; 1.371742 nM) of 3.33% and an inhibition at 0.00411523 µM ([1]; 4.115226 nM) of -1.07%. For the same compound, the inhibition at 0.0123457 µM ([1]; 12.34568 nM) was -0.369%, the inhibition at 0.037037 µM ([1]; 37.03704 nM) was -0.828% and the inhibition at 0.111111 µM ([1]; 111.1111 nM) was 0.944%. The inhibition at 0.333333 µM ([1]; 333.3333 nM) was 2.15%, the inhibition at 1 µM ([1]; 1000 nM) was 8.05% and the ED50 ([2]; Mus musculus, 672 h, oral gavage, 28 days, LPS-induced serum TNFα) was 0.46 mg/kg. For the same compound, the ED80 ([2]; Mus musculus, 672 h, oral gavage, 28 days, LPS-induced serum TNFα, read-out: TNFα Suppression (ED80 dose)) was 1.82 mg/kg, the “Serum TNFα EAUC50 (AUC 0-4 hr)” value ([2]; mice) was 0.22 µg·h/mL and the “Serum TNFα EAUC80 (AUC 0-4 hr)” value ([2]; mice) was 0.33 µg·h/mL. The ED80 ([3]; Mus musculus, dosing day 34 through day 49, read-out: Therapeutic mCIA (ED80 dose)) was 1.5 mg/kg, the “Therapeutic mCIA (ED50 dose)” value ([3]; dosing day 34 through day 49, listed as Example 1 free base) was 0.4 mg/kg and the “Disease severity (therapeutic mCIA) EAUC50 (AUC 0-4 hr)” value ([3]; mice) was 0.09 µg·h/mL. For the same compound, the “Disease severity (therapeutic mCIA) EAUC80 (AUC 0-4 hr)” value ([3]; mice) was 0.19 µg·h/mL, the “AUC(0-4 hr) values as share of the AUC(0-24 hr) values” [4] was “more than 95%” and the ED50 [5] was 2.91 mg/kg. The “Serum osteocalcin EAUC50 (AUC 0-4 hr)” value [6] was 1300 ng·h/mL, the “Serum osteocalcin EAUC80 (AUC 0-4 hr)” value [6] was 4200 ng·h/mL and the “Osteocalcin Suppression (ED80 dose)” value ([6]; po) was greater than 10 mg/kg.
